These compounds were tested on Maillard reaction (assay: Inhibitory effect on Maillard reaction in vitro (BSA + glucose incubation, fluorescence)). Details: 6mM test compound; 100 mg/ml bovine serum albumin (BSA), 200 mM glucose, 0.5 M phosphatic buffer solution (pH 7.38), incubated for a week at 37°C; fluorescence excitation 360nm, emission 450 nm.
Assay type: biochemical
Protocol: An inhibitory activity on Maillard reaction of the compounds of the present invention was confirmed by the screening system mentioned below.
In order to evaluate the inhibitory effect on Maillard reaction in vitro, of the compounds in the present invention, the measurement was carried out under conditions described below.
100 mg/ml bovine serum albumin (BSA), 200 mM glucose and 6mM test compound were dissolved in 0.5 M phosphatic buffer solution (pH 7.38), and the mixture was incubated for a week at 37°C.
After incubation, the incubated medium was diluted 100 times with the same phosphatic buffer solution, and the fluorescence spectrum was measured at the excitation maximum of 360nm and the emission maximum of 450 nm.
Inhibition percentage of the test compounds was calculated by the following equation: [formula] ΔI₁ : fluorescence of test compounds ΔI₂ : fluorescence of (test compounds + glucose), ΔI₃ : fluorescence of (test compounds + BSA), ΔI₄ : fluorescence of (test compounds + BSA + glucose), ΔI : fluorescence of (BSA + glucose)

Compound	Inhibitory effect (%) (6mM)
N=C(N)NNc1ccc(Cl)cc1.O=S(=O)(O)O [1(b), 1-(4-chloroanilino) guanidine sulfate]	100%
N=C(N)NNc1ccc(F)cc1.O=S(=O)(O)O [1(c), 1-(4-fluoroanilino) guanidine sulfate]	100%
COc1ccc(NNC(=N)N)cc1.O=S(=O)(O)O [1(d), 1-(4-methoxyanilino) guanidine sulfate]	100%
Cc1ccc(NNC(=N)N)cc1.O=S(=O)(O)O [1(h), 1-(4-methylanilino) guanidine sulfate]	83%
N=C(N)NNc1cccc([N+](=O)[O-])c1.O=S(=O)(O)O [1(j), 1-(3-nitroanilino) guanidine sulfate]	94%
N=C(N)NNc1ccccc1Cl.O=S(=O)(O)O [Example 1(a), 1-(2-chloroanilino) guanidine sulfate]	79%
N=C(N)NNc1ccccc1.O=S(=O)(O)O [Example 1, 1-anilinoguanidine sulfate]	79%
